Structures are written as SMILES.

This test relates to HIV-1 (HIVIIIB). Kind of test: HIV-1 replication in MT2 cell line with and without 30% human serum (viral RT activity in supernatant). It counts as cell-based. As to conditions: Human immunodeficiency virus 1, MT2, MT-2 cells, with 30% human serum, average IC50 if tested more than once, read-out: MT-2 (HIVIIIB) with 30% HS IC50 range. The method in brief:
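MT2 cells infected with HIVIIIB at MOI 0.5 for 3 h, washed, then cultured with serially diluted compound in RPMI/10% FBS, with or without 30% human serum, at 37° C. Compound-containing medium refreshed at day 3. Replication measured as supernatant RT activity at day 5; IC50 and IC90 from curve fits.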
Regarding `CC(C)C1=C2[C@H]3CC[C@@H]4[C@@]5(C)CC[C@H](OC(=O)CC(C)(C)C(=O)O)C(C)(C)[C@@H]5CC[C@@]4(C)[C@]3(C)CC[C@@]2(C(=O)NCc2ccncc2)CC1=O` [9-18, 3β-O-(3′,3′-Dimethylsuccinyl)-21-oxolup-18-en-28-oic acid N-pyridin-4-ylmethylamide], the IC50 (commonly the point on the concentration scale where inhibition reaches its midpoint) is less than 0.199 µM. The same measure for `CC(C)C1=C2C3CCC4[C@@]5(C)CC[C@H](OC(=O)CC(C)(C)C(=O)O)C(C)(C)C5CC[C@@]4(C)[C@]3(C)CC[C@@]2(C(=O)NC[C@H]2CCCN2C(=O)OC(C)(C)C)CC1=O` (stereo partly drawn) [9-79, 3β-O-(3′,3′-Dimethylsuccinyl)-21-oxolup-18-en-28-oic acid N-(R)-2-acetylaminomethyl-pyrrolidine-1-carboxylic acid tert-butyl ester]: less than 0.199 µM.

In the case of `Cc1nnc(NC(=O)[C@@]23CC[C@]4(C)[C@H](CC[C@@H]5[C@@]6(C)CC[C@H](OC(=O)CC(C)(C)C(=O)O)C(C)(C)[C@@H]6CC[C@]54C)C2=C(C(C)C)C(=O)C3)o1` [9-62, 3β-O-(3′,3′-Dimethylsuccinyl)-21-oxolup-18-en-28-oic acid N-(5-methyl-[1,3,4]oxadiazol-2-yl)-acetamide], the IC50 is 0.2 to 0.999 µM. The same measure for `CC(C)C1=C2[C@H]3CC[C@@H]4[C@@]5(C)CC[C@H](OC(=O)CC(C)(C)C(=O)O)C(C)(C)[C@@H]5CC[C@@]4(C)[C@]3(C)CC[C@@]2(C(=O)NCCNC(=O)OC(C)(C)C)CC1=O` [9-20, 3β-O-(3′,3′-Dimethylsuccinyl)-21-oxolup-18-en-28-oic acid N-(2-acetylamino-ethyl)-carbamic acid tert-butyl ester]: less than 0.199 µM.

`CC(C)C1=C2[C@H]3CC[C@@H]4[C@@]5(C)CC[C@H](OC(=O)CC(C)(C)C(=O)O)C(C)(C)[C@@H]5CC[C@@]4(C)[C@]3(C)CC[C@@]2(C(=O)Nc2ncccn2)CC1=O` [9-38, 3β-O-(3′,3′-Dimethylsuccinyl)-21-oxolup-18-en-28-oic acid N-pyrimidin-2-yl-acetamide]: the IC50 is less than 0.199 µM. Regarding `CC(C)C1=C2[C@H]3CC[C@@H]4[C@@]5(C)CC[C@H](OC(=O)CC(C)(C)C(=O)O)C(C)(C)[C@@H]5CC[C@@]4(C)[C@]3(C)CC[C@@]2(C(=O)N2CCOCC2)CC1=O` [9-7, 3β-O-(3′,3′-Dimethylsuccinyl)-21-oxolup-18-en-28-oic acid N-morpholyl acetamide], the half-maximal inhibitory concentration (IC50) was less than 0.199 µM.

On to `CC(C)C1=C2C3CCC4[C@@]5(C)CC[C@H](OC(=O)CC(C)(C)C(=O)O)C(C)(C)C5CC[C@@]4(C)[C@]3(C)CC[C@@]2(C(=O)Nc2ccccc2C(C)C)CC1=O` (stereo partly drawn) [9-87, 3β-O-(3′,3′-Dimethylsuccinyl)-21-oxolup-18-en-28-oic acid N-2-isopropyl-phen-1-yl acetamide], for which the IC50 fell in the range of 0.2 to 0.999 µM.

As to `CC(C)C1=C2[C@H]3CC[C@@H]4[C@@]5(C)CC[C@H](OC(=O)CC(C)(C)C(=O)O)C(C)(C)[C@@H]5CC[C@@]4(C)[C@]3(C)CC[C@@]2(C(=O)N2CCN(C)CC2)CC1=O` [9-9, 3β-O-(3′,3′-Dimethylsuccinyl)-21-oxolup-18-en-28-oic acid N-(4-methylpiperazinyl) acetamide], the IC50 is less than 0.199 µM.

Regarding `CC(C)C1=C2[C@H]3CC[C@@H]4[C@@]5(C)CC[C@H](OC(=O)CC(C)(C)C(=O)O)C(C)(C)[C@@H]5CC[C@@]4(C)[C@]3(C)CC[C@@]2(C(=O)NC(C)C(F)(F)F)CC1=O` (stereo partly drawn) [9-75, 3β-O-(3′,3′-Dimethylsuccinyl)-21-oxolup-18-en-28-oic acid N-(2,2,2-trifluoro-1-methyl-ethyl)-acetamide], the concentration for half-maximal inhibition (IC50) is less than 0.199 µM. To `CC(C)C1=C2[C@H]3CC[C@@H]4[C@@]5(C)CC[C@H](OC(=O)CC(C)(C)C(=O)O)C(C)(C)[C@@H]5CC[C@@]4(C)[C@]3(C)CC[C@@]2(C(=O)N2CCC(F)(F)CC2)CC1=O` [9-94, 3β-O-(3′,3′-Dimethylsuccinyl)-21-oxolup-18-en-28-oic acid N-4,4-difluoro-piperidine acetamide] belongs less than 0.199 µM; to `CC(C)NC(=O)N1CCN(C(=O)[C@@]23CC[C@]4(C)[C@H](CC[C@@H]5[C@@]6(C)CC[C@H](OC(=O)CC(C)(C)C(=O)O)C(C)(C)[C@@H]6CC[C@]54C)C2=C(C(C)C)C(=O)C3)CC1` [9-39, 3β-O-(3′,3′-Dimethylsuccinyl)-21-oxolup-18-en-28-oic acid N-(4-N′-isopropylureido-1-piperazine)-acetamide], less than 0.199 µM; to `CC(C)C1=C2[C@H]3CC[C@@H]4[C@@]5(C)CC[C@H](OC(=O)CC(C)(C)C(=O)O)C(C)(C)[C@@H]5CC[C@@]4(C)[C@]3(C)CC[C@@]2(C(=O)N2C3CCC2CN(C(=O)c2ccccc2)C3)CC1=O` [9-36, 3β-O-(3′,3′-Dimethylsuccinyl)-21-oxolup-18-en-28-oic acid N-(8-amino-3,8-diaza-bicyclo[3.2.1]octane-3-benzamide)-acetamide], less than 0.199 µM.

Turning to `CC(C)C1=C2[C@H]3CC[C@@H]4[C@@]5(C)CC[C@H](OC(=O)CC(C)(C)C(=O)O)C(C)(C)[C@@H]5CC[C@@]4(C)[C@]3(C)CC[C@@]2(C(=O)Nc2cncc3ccccc23)CC1=O` [9-63, 3β-O-(3′,3′-Dimethylsuccinyl)-21-oxolup-18-en-28-oic acid N-isoquinolin-4-yl-acetamide], the IC50 is less than 0.199 µM. The same measure for `CC(C)C1=C2[C@H]3CC[C@@H]4[C@@]5(C)CC[C@H](OC(=O)CC(C)(C)C(=O)O)C(C)(C)[C@@H]5CC[C@@]4(C)[C@]3(C)CC[C@@]2(C(=O)NC(C)(C)C2CC2)CC1=O` [9-73, 3β-O-(3′,3′-Dimethylsuccinyl)-21-oxolup-18-en-28-oic acid N-(1-cyclopropyl-1-methyl-ethyl)-acetamide]: less than 0.199 µM.

For `CC(C)C1=C2[C@H]3CC[C@@H]4[C@@]5(C)CC[C@H](OC(=O)CC(C)(C)C(=O)O)C(C)(C)[C@@H]5CC[C@@]4(C)[C@]3(C)CC[C@@]2(C(=O)Nc2ccccc2)CC1=O` [9-10, 3β-O-(3′,3′-Dimethylsuccinyl)-21-oxolup-18-en-28-oic acid N-benzamide], the IC50 is less than 0.199 µM. As to `CC(C)C1=C2C3CCC4[C@@]5(C)CC[C@H](OC(=O)CC(C)(C)C(=O)O)C(C)(C)C5CC[C@@]4(C)[C@]3(C)CC[C@@]2(C(=O)N(C)C(C)(C)C)CC1=O` (stereo partly drawn) [9-78, 3β-O-(3′,3′-Dimethylsuccinyl)-21-oxolup-18-en-28-oic acid N-tert-butyl-N-methyl-acetamide], the IC50 was less than 0.199 µM.

Regarding `COc1ccc(CNC(=O)[C@@]23CC[C@]4(C)[C@H](CC[C@@H]5[C@@]6(C)CC[C@H](OC(=O)CC(C)(C)C(=O)O)C(C)(C)[C@@H]6CC[C@]54C)C2=C(C(C)C)C(=O)C3)cc1` [9-15, 3β-O-(3′,3′-Dimethylsuccinyl)-21-oxolup-18-en-28-oic acid N-4-methoxy-benzylamide], the IC50 was less than 0.199 µM. To `CC(C)C1=C2C3CCC4[C@@]5(C)CC[C@H](OC(=O)CC(C)(C)C(=O)O)C(C)(C)C5CC[C@@]4(C)[C@]3(C)CC[C@@]2(C(=O)NCC2CCC(F)(F)CC2)CC1=O` (stereo partly drawn) [9-93, 3β-O-(3′,3′-Dimethylsuccinyl)-21-oxolup-18-en-28-oic acid N-(4,4-difluoro-cyclohexylmethyl)-acetamide] belongs less than 0.199 µM.

These data come from patent US8431556B2, “C-21-keto lupane derivatives preparation and use thereof” (Vertex Pharmaceuticals Incorporated, priority 2008, dated 2013).
